Assay results reported in patent publication EP4467141A1, “PYRAZOLO-QUINOLINES AS SELECTIVE INHIBITORS OF GENOTOXIC STRESS-INDUCED IKK/NF- KB PATHWAYS FOR CANCER THERAPY” (Max-Delbrück-Centrum für Molekulare Medizin in der …, priority 2023, dated 2024).

Columns and labels:
Test in all cases: Kinase panel study
Format in all cases: biochemical
Settings in all cases: read-out: Percentage of inhibition; for inhibition at 1 µM: 1000nM; for inhibition at 10 µM: 10000nM
ROCK1 = biological target: T1, ROCK1 (Homo sapiens, UniProt Q13464)
T1 construct: purchased Thermo Fisher Scientific
Outline: (§1)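 Readout is percentage kinase inhibition. Testing used 1 µM or 10 µM compound in externally run ZLyte/Adapta in vitro assays, and IC50 values were derived within the same panel.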

PIK3C2B (PI3K-C2 beta) = biological target: T2, PIK3C2B (PI3K-C2 beta) (Homo sapiens, UniProt O00750)
T2 construct: purchased Thermo Fisher Scientific
Outline: as §1

MAP3K19 (YSK4) = biological target: T3, MAP3K19 (YSK4) (Homo sapiens, UniProt Q56UN5)
T3 construct: purchased Thermo Fisher Scientific
T3 sequence (Q56UN5 1-1328): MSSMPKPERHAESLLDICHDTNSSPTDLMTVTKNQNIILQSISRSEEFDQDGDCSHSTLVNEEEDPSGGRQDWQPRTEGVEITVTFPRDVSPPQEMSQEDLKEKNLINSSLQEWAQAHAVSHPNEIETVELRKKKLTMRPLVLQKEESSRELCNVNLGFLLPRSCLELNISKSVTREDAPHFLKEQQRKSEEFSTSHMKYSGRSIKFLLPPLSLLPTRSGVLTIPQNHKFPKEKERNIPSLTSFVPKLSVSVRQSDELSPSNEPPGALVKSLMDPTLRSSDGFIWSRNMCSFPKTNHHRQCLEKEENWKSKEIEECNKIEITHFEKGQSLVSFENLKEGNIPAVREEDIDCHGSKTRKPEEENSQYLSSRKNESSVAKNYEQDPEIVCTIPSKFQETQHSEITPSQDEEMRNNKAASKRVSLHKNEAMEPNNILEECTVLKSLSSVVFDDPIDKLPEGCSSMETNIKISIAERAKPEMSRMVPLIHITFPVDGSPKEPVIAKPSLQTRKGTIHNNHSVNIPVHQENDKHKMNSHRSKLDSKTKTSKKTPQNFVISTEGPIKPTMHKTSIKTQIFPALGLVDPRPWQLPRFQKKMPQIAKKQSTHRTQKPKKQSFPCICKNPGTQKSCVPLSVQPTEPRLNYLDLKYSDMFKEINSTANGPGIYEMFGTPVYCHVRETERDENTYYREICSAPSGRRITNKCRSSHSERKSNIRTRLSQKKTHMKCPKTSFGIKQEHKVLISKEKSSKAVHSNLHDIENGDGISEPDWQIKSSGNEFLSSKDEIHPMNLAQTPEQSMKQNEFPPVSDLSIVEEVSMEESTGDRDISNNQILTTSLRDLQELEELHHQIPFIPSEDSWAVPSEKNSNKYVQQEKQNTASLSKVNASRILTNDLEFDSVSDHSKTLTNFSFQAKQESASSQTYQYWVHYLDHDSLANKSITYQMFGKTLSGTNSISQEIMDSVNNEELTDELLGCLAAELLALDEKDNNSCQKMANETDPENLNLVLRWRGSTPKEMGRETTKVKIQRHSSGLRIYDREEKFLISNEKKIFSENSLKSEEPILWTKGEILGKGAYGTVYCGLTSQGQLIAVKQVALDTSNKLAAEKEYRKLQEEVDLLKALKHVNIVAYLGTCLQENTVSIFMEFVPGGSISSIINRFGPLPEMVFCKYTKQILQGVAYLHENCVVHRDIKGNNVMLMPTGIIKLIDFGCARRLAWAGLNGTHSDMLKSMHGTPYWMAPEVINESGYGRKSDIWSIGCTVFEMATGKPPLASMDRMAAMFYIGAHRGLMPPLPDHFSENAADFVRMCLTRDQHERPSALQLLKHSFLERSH
Outline: as §1

FES (FPS) = biological target: T4, FES (FPS) (Homo sapiens, UniProt P07332)
T4 construct: purchased Thermo Fisher Scientific
Outline: as §1

T4 sequence (P07332 whole entry): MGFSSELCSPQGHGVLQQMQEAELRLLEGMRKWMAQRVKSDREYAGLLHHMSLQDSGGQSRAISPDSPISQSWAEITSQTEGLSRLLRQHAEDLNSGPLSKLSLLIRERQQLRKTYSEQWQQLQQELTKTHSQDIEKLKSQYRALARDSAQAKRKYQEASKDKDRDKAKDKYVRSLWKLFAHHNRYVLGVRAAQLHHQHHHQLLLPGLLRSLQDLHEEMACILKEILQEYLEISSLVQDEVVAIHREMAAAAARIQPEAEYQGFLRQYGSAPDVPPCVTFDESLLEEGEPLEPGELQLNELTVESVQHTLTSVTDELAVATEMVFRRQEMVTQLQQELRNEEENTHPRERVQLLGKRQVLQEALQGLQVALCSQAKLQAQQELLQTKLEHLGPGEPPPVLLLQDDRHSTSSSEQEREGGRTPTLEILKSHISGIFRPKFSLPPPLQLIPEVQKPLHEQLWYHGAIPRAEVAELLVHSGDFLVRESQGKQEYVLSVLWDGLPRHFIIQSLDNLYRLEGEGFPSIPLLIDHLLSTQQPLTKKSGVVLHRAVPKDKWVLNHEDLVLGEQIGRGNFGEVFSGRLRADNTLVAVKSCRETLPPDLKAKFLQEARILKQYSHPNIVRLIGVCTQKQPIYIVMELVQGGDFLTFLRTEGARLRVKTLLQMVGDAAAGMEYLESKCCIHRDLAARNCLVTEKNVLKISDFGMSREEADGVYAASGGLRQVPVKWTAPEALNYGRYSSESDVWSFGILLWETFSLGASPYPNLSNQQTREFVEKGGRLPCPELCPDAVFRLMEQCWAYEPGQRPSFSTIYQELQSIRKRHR
T1 sequence (Q13464 whole entry): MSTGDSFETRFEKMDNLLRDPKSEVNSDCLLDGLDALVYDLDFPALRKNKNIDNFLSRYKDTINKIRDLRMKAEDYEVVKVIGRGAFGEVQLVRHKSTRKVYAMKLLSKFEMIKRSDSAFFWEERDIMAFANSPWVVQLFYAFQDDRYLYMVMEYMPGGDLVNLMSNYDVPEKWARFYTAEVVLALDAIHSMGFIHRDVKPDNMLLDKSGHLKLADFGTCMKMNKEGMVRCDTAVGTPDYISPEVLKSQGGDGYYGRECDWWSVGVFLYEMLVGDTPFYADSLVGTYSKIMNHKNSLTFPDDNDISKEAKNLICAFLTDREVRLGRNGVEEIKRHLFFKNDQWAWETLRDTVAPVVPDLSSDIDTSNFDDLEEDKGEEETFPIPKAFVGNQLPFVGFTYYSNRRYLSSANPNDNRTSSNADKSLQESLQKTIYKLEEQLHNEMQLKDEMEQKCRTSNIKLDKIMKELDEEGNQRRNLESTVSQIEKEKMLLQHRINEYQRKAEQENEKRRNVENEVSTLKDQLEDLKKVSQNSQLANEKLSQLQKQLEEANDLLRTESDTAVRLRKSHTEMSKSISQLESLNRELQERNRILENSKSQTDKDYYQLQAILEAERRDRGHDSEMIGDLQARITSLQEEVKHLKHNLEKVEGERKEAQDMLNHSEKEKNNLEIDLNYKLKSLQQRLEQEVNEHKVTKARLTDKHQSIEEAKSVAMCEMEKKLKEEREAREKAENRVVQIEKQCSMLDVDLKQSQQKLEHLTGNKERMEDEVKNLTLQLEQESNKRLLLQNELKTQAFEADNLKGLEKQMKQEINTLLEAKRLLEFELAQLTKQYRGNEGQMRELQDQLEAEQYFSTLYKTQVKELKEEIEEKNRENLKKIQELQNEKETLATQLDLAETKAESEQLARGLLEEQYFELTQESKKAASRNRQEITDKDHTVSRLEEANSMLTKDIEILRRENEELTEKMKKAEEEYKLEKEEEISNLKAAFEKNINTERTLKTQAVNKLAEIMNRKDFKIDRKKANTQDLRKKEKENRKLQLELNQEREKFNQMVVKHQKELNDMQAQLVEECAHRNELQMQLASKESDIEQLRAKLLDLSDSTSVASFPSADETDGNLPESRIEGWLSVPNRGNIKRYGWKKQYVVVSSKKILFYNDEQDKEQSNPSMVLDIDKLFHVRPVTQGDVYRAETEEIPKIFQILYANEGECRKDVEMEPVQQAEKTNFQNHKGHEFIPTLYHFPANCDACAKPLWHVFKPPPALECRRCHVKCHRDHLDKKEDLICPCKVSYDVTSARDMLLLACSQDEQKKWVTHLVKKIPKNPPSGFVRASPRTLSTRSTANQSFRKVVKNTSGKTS
T2 sequence (O00750 whole entry): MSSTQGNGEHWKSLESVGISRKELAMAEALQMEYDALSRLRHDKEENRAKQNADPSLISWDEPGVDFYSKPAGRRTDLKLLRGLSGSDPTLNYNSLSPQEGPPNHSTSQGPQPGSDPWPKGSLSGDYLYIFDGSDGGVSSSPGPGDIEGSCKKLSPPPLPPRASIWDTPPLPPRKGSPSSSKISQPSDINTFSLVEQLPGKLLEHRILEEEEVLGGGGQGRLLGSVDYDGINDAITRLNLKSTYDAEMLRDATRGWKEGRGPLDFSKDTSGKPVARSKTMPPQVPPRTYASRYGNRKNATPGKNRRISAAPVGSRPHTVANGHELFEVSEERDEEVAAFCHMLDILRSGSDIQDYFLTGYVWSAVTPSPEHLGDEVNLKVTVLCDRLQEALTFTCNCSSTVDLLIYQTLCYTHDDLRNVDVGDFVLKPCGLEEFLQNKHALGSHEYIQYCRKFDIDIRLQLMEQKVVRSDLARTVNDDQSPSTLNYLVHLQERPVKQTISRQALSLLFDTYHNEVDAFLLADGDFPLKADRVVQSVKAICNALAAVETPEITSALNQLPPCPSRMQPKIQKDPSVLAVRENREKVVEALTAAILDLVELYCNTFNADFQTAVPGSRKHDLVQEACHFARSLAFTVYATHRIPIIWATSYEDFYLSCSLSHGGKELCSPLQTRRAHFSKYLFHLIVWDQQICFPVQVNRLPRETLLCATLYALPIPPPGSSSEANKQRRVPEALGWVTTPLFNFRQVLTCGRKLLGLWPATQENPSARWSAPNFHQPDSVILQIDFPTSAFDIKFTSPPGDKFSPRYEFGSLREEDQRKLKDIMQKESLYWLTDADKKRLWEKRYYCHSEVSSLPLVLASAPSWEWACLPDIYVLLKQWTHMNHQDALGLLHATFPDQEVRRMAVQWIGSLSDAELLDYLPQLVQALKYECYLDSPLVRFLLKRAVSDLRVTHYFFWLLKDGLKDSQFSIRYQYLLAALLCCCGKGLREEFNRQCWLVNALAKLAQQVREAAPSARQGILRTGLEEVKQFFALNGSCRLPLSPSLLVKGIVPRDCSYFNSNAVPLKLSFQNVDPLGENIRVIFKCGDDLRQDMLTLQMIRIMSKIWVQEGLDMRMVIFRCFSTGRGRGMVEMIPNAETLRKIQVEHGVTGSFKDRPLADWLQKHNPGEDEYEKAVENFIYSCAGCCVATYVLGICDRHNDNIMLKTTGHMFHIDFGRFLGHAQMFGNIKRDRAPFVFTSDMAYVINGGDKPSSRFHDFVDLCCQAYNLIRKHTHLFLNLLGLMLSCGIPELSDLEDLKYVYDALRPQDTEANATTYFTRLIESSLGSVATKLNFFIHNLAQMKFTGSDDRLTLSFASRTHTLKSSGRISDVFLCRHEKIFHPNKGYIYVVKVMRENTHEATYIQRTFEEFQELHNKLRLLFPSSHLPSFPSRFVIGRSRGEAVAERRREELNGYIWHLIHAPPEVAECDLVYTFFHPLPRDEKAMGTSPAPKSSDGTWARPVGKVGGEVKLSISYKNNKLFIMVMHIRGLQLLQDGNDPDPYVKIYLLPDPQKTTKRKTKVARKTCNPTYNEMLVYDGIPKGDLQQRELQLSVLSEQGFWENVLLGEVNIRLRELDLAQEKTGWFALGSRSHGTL

SMILES | inhibition at 1 µM (ROCK1) [%] | inhibition at 10 µM (ROCK1) [%] | inhibition at 1 µM (PIK3C2B (PI3K-C2 beta)) [%] | inhibition at 10 µM (PIK3C2B (PI3K-C2 beta)) [%] | inhibition at 1 µM (MAP3K19 (YSK4)) [%] | inhibition at 10 µM (MAP3K19 (YSK4)) [%] | inhibition at 1 µM (FES (FPS)) [%] | inhibition at 10 µM (FES (FPS)) [%]
COc1ccc2c(c1OC)c(=O)n1c3ccc(O)cc3c3ccnc2c31 [MW01, 5-Hydroxy-10,11-dimethoxy-9H-benzo[c]indolo[3,2,1-ij][1,5]naphthyridin-9-one] | 0 | 13 | 53 | 68 | 4 | 17 | 0 | 15
COc1ccc2cc3c(N)nn(C(=O)c4cccc(N(C)C)c4)c3nc2c1 [MW05, (3-Amino-7-methoxypyrazolo[3,4-b]quinolin-1-yl)-[3-(dimethylamino)phenyl]methanone] | -4 | -5 | 2 | 12 | -3 | -5 | 1 | -1
